For experiment [1], the target named is T1, human recombinant adrenergic α2B receptor (Homo sapiens, UniProt P18089).
T1 construct: expressed in transfected cells; host or cells: CHO-K1
T1 sequence (P18089 1-450): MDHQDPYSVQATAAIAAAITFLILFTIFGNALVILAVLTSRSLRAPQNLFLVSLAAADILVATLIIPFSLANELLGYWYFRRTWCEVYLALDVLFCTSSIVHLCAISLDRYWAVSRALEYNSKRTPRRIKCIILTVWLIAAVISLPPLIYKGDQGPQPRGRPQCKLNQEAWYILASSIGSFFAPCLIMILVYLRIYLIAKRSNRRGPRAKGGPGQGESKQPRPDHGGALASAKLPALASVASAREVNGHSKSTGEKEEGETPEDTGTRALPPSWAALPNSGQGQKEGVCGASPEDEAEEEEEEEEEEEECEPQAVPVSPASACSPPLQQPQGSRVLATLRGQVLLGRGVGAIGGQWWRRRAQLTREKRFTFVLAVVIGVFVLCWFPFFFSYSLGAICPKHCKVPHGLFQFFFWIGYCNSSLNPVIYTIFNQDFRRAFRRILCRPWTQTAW
Briefly: Radioligand binding, adrenergic α2B ([3H]Rauwolscine). The note with it: for Percentage inhibition of ligand binding, Adrenergic α2B (0.03 μM): compound at 0.03 μM. The method, boiled down: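 Membranes from CHO-K1 cells expressing human recombinant α2B, in 50 mM Tris-HCl pH 7.4, 12.5 mM MgCl2, 1 mM EDTA, 0.2% BSA, incubated with compound and 2.5 nM [3H]Rauwolscine, 60 min, 25 °C.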

The target in experiment [2] is T2, human recombinant adrenergic α2A receptor (Homo sapiens, UniProt P08913).
T2 construct: expressed in transfected cells; host or cells: insect Sf9 cells
T2 sequence (P08913 1-465): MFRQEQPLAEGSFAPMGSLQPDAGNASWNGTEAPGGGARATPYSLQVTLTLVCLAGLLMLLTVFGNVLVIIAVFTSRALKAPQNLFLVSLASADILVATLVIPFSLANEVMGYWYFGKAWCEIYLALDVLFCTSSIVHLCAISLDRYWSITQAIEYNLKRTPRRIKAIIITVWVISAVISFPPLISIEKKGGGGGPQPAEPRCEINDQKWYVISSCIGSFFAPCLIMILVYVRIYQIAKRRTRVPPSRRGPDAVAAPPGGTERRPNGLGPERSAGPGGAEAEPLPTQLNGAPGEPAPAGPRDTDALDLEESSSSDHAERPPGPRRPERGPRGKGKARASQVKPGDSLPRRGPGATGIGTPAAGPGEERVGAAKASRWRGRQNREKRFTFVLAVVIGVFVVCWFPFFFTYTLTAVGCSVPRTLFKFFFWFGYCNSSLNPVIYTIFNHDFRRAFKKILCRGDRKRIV
Briefly: Radioligand binding, adrenergic α2A ([3H]MK-912). The note with it: for Percentage inhibition of ligand binding, Adrenergic α2A (0.1 μM): compound at 0.1 μM. The method, boiled down: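 In 50 mM Tris-HCl (pH 7.4) containing 12.5 mM MgCl2 and 2 mM EDTA, Sf9-expressed receptor was exposed to test compound plus 1 nM [3H]MK-912 at 25 °C for 60 min. Specific binding, corrected using 10 μM WB-4101, was quantified by filtration and counting and expressed as percent inhibition.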

Experiment [3] addresses T3, rat adrenergic α1B receptor (Rattus norvegicus, UniProt P15823).
T3 construct: rat adrenergic α1B receptor obtained from Wistar Rat liver; from tissue; host or cells: Wistar rat liver
T3 sequence (P15823 1-515): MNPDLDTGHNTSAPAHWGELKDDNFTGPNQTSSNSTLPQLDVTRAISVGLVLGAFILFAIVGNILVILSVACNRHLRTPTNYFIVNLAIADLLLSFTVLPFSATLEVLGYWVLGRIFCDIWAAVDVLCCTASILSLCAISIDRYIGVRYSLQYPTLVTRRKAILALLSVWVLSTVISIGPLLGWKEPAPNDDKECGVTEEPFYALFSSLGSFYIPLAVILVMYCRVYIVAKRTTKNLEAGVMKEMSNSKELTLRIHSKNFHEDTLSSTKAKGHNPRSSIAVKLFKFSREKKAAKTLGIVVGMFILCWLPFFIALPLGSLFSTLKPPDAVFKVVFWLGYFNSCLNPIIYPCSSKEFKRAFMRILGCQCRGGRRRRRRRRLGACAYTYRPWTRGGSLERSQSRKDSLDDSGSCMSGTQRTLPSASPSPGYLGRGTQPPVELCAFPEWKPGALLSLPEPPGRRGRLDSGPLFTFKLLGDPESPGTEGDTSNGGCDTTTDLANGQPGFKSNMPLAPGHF
Put plainly: Radioligand binding, adrenergic α1B ([3H]Prazosin). The following applies: for Percentage inhibition of ligand binding, Adrenergic α1B (0.1 μM): compound at 0.1 μM. In a few lines: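 Incubation ran 60 min at 25 °C in Tris-HCl buffer (50 mM, pH 7.4, 0.5 mM EDTA) with Wistar rat liver α1B receptor. 10 μM phentolamine set non-specific binding.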

Setting [4] is: 0.03 μM compound, read-out: Percentage inhibition of ligand binding, Adrenergic α2B.
The mark [5] stands for this setting: 0.1 μM compound, read-out: Percentage inhibition of ligand binding, Adrenergic α2A.
[6] abbreviates: 0.1 μM compound, read-out: Percentage inhibition of ligand binding, Adrenergic α1B.
The mark [7] stands for this setting: read-out: Percentage inhibition of ligand binding, Adrenergic α2B (0.03 μM), compound at 0.03 μM, [3H]Rauwolscine, repeat datapoints each shown.
[8] abbreviates: read-out: Percentage inhibition of ligand binding, Adrenergic α2A (0.1 μM), compound at 0.1 μM, [3H]MK-912, repeat datapoints each shown.
The mark [9] stands for this setting: read-out: Percentage inhibition of ligand binding, Adrenergic α1B (0.1 μM), compound at 0.1 μM, [3H]Prazosin, repeat datapoints each shown.
Where [10] appears, read: [3H]MK-912, repeat datapoints each shown.
[11] abbreviates: [3H]Rauwolscine, repeat datapoints each shown.
Setting [12] is: [3H]Prazosin, repeat datapoints each shown.

Where two headings read alike, the source gives them in different places.

With `CN1CCc2c(n(CC(O)c3cccnc3)c3ccc(Cl)cc23)C1` (stereo not drawn) [II-87], the inhibition (as a rule, the change of the read-out against control, counted positive when it falls) at 0.03 µM in experiment [1] (setting [4]) was 24%. For the same compound, the values for the inhibition at 0.1 µM in experiment [2] (setting [5]) and in experiment [3] (setting [6]) were 1% and 11%, respectively.
Consider `Cc1ccc2c(c1)c1c(n2CC(O)c2ccc(O)c(O)c2)CCN(C)C1` (stereo not drawn) [II-88, 4-[2-(2,8-dimethyl-1,2,3,4-tetrahydro-pyrido[4,3-b]indol-5-yl)-1-hydroxy-ethyl]-benzene-1,2-diol], for which, in experiment [1] (setting [4]), the inhibition at 0.03 µM worked out at 48%. The results for the inhibition at 0.1 µM in experiment [2] (setting [5]) and in experiment [3] (setting [6]) were -2% and 68%, respectively.
With `OC(Cn1c2c(c3cc(Cl)ccc31)CNCC2)c1cccnc1` (stereo not drawn) [II-89, 2-(8-chloro-1,2,3,4-tetrahydro-pyrido[4,3-b]indol-5-yl)-1-pyridin-3-yl-ethanol], in experiment [1] (setting [4]), the inhibition at 0.03 µM stood at 35%. Also, the inhibition at 0.1 µM in experiment [2] (setting [5]) is -5%; in experiment [3] (setting [6]), 13%.
With `Cc1ccc2c(c1)c1c(n2CC(O)c2ccnc3ccccc23)CCN(C)C1` (stereo not drawn) [II-90, 2-(2,8-dimethyl-3,4-dihydro-1H-pyrido[4,3-b]indol-5(2H)-yl)-1-(quinolin-4-yl)ethanol], the inhibition at 0.03 µM in experiment [1] (setting [4]) came to 55%. The inhibition at 0.1 µM in experiment [2] (setting [5]) was 19%; in experiment [3] (setting [6]) it was 62%.
For the compound `Cc1ccc2c(c1)c1c(n2CC(O)C2CCCCC2)CCN(C)C1` (stereo not drawn) [II-91], the inhibition at 0.03 µM in experiment [1] (setting [4]) came to 25%. Moreover, the inhibition at 0.1 µM was -2% in experiment [2] (setting [5]) and 16% in experiment [3] (setting [6]).
Consider `Cc1ccc2c(c1)c1c(n2CC(O)c2ccc(O)nc2)CCN(C)C1` (stereo not drawn) [II-92, 5-(2-(1,2,3,4-tetrahydro-2,8-dimethylpyrido[4,3-b]indol-5-yl)-1-hydroxyethyl)pyridin-2(1H)-one], for which the inhibition at 0.03 µM in experiment [1] (setting [4]) came out at 25%. Besides, the inhibition at 0.1 µM in experiment [2] (setting [5]) amounted to 0%; in experiment [3] (setting [6]) it was 13%.
As to `OCCN1CCc2c(c3cc(Cl)ccc3n2CC(O)c2ccncc2)C1` (stereo not drawn) [II-93a], in experiment [1] (0.03 μM compound), the “Percentage inhibition of ligand binding, Adrenergic α2B” value was 24%. Besides, the inhibition at 0.1 µM in experiment [2] (setting [5]) is 7%. The “Percentage inhibition of ligand binding, Adrenergic α1B” value in experiment [3] (0.1 μM compound) is reported as 6%.
`Cc1ccc2c(c1)c1c(n2CC(O)c2ccncc2)CCN(CCS(=O)(=O)O)C1` (stereo not drawn) [II-97, 2-(3,4-dihydro-5-(2-hydroxy-2-(pyridin-4-yl)ethyl)-8-methyl-1H-pyrido[4,3-b]indol-2(5H)-yl)ethanesulfonic acid]: the inhibition at 0.03 µM in experiment [1] (setting [4]) was 24%. In addition, the inhibition at 0.1 µM in experiment [2] (setting [5]) was 4%; in experiment [3] (setting [6]), -4%.
For the compound `CN1CCc2c(c3cc(CO)ccc3n2CC(C)(O)c2cccnc2)C1` (stereo not drawn) [II-102], in experiment [1] (setting [4]), the inhibition at 0.03 µM is 49%. Also, the values for the inhibition at 0.1 µM in experiment [2] (setting [5]) and in experiment [3] (setting [6]) were 10% and 2%, respectively.
The like results for `CC(O)(Cn1c2c(c3cc(CO)ccc31)CNCC2)c1cccnc1` (stereo not drawn) [II-104] were, in that order, 21%, 10% and 3%.
With `Cc1cnc2c(c1)c1c(n2CC(O)c2ccc(C(N)=O)nc2)CCN(C)C1` (stereo not drawn) [II-111, 5-[2-(3,6-dimethyl-5,6,7,8-tetrahydro-1,6,9-triaza-fluoren-9-yl)-1-hydroxy-ethyl]-pyridine-2-carboxylic acid amide], the inhibition at 0.03 µM in experiment [1] (setting [7]) came to 35%. Further, the inhibition at 0.1 µM came to 3% in experiment [2] (setting [8]) and 42% in experiment [3] (setting [9]).
For `Cc1ccc2c(c1)c1c(n2CC(C)(O)c2cccnc2)C(c2ccccc2)N(C)CC1` (stereo not drawn) [II-112a, 1-(2,6-dimethyl-1-phenyl-1,2,3,4-tetrahydro-β-carbolin-9-yl)-2-pyridin-3-yl-propan-2-ol], the inhibition at 0.03 µM in experiment [1] (setting [7]) came out at 36%. Besides, the “Percentage inhibition of ligand binding, Adrenergic α2A (0.1 μM)” value in experiment [2] (setting [10]) is reported as 10%. Moreover, the inhibition at 0.1 µM in experiment [3] (setting [9]) is 5%.
Take `Cc1ccc2c(c1)c1c(n2CC(C)(O)c2cccnc2)C(c2ccccc2)N(C)CC1` (stereo not drawn) [II-112b, 1-(2,6-dimethyl-1-phenyl-1,2,3,4-tetrahydro-β-carbolin-9-yl)-2-pyridin-3-yl-propan-2-ol]: in experiment [1] (setting [11]), the “Percentage inhibition of ligand binding, Adrenergic α2B (0.03 μM)” value is listed as 31%. For the same compound, the “Percentage inhibition of ligand binding, Adrenergic α2A (0.1 μM)” value in experiment [2] (setting [10]) is 3%. The “Percentage inhibition of ligand binding, Adrenergic α1B (0.1 μM)” value in experiment [3] (setting [12]) was 10%.
Regarding `Cc1cnc2c(c1)c1c(n2CC(O)c2ccc(C#N)cc2)CCNC1` (stereo not drawn) [II-116], in experiment [1] (setting [7]), the inhibition at 0.03 µM stood at 43%. For the same compound, the inhibition at 0.1 µM in experiment [2] (setting [8]) came out at 3%; in experiment [3] (setting [9]), 4%.
The like results for `Cc1ccc2c(n1)c1c(n2CC(O)c2ccncc2)CCN2CCCC12` (stereo not drawn) [II-122] were, in that order, 47%, -10% and -2%.
As to `CN1CCc2c(c3ncccc3n2CC(C)(O)c2cccnc2)C1` (stereo not drawn) [II-126], the inhibition at 0.03 µM in experiment [1] (setting [7]) turned out to be 4%. The figures for the inhibition at 0.1 µM in experiment [2] (setting [8]) and in experiment [3] (setting [9]) were 4% and -4%, respectively.
As for `Cc1ccc2c(c1)c1c(n2CC(C)(O)c2ccc(C)nc2)CCN2CCCC12` (stereo not drawn) [II-128a, 1-(9-methyl-1,2,3,4,5,10c-hexahydro-3a,6-diaza-cyclopenta[c]fluoren-6-yl)-2-(6-methyl-pyridin-3-yl)-propan-2-ol], the inhibition at 0.03 µM in experiment [1] (setting [7]) came to 97%. For the same compound, the inhibition at 0.1 µM in experiment [2] (setting [8]) amounted to 34%; in experiment [3] (setting [9]) it was 61%.
`CN1CCc2c(c3ccncc3n2CC(C)(O)c2cccnc2)C1` (stereo not drawn) [II-129]: in experiment [1] (setting [7]), the inhibition at 0.03 µM came out at 1%. Further, the inhibition at 0.1 µM in experiment [2] (setting [8]) was found to be 12%; in experiment [3] (setting [9]), 2%.
On to `CC(O)(Cn1c2c(c3cc(Cl)ccc31)C1CCCN1CC2)c1cccnc1` (stereo not drawn) [II-130, 1-(10-chloro-2,3,5,6-tetrahydro-1H-indolizino[7,8-b]indol-7(11cH)-yl)-2-(pyridin-3-yl)propan-2-ol], for which the “Percentage inhibition of ligand binding, Adrenergic α2B (0.03 μM)” value in experiment [1] (setting [11]) was 97%. The “Percentage inhibition of ligand binding, Adrenergic α2A (0.1 μM)” value in experiment [2] (setting [10]) amounted to 41%. Further, in experiment [3] (setting [12]), the “Percentage inhibition of ligand binding, Adrenergic α1B (0.1 μM)” value is reported as 43%.
With `Cc1ccc2c(c1)c1c(n2CC(O)c2cccnc2)CCN2CCCC12` (stereo not drawn) [II-131, 2-(9-Methyl-1,2,3,4,5,10c-hexahydro-3a,6-diaza-cyclopenta[c]fluoren-6-yl)-1-pyridin-3-yl-ethanol], the inhibition at 0.03 µM in experiment [1] (setting [7]) is 103%. Further, the inhibition at 0.1 µM in experiment [2] (setting [8]) turned out to be 85%; in experiment [3] (setting [9]), 90%.
In the case of `Cc1ccc2c(c1)c1c(n2CC(C)(O)c2cccnc2)CCN(C)CC1` (stereo not drawn) [II-135a, 1-(3,9-dimethyl-2,3,4,5-tetrahydroazepino[4,5-b]indol-6(1H)-yl)-2-(pyridin-3-yl)propan-2-ol], in experiment [1] (setting [7]), the inhibition at 0.03 µM came out at 34%. Moreover, the inhibition at 0.1 µM in experiment [2] (setting [8]) is -3%; in experiment [3] (setting [9]) it was 48%.

These data come from patent US8791132B2, “Compounds and methods for treatment of hypertension” (Medivation Technologies, Inc., priority 2011, dated 2014).
